Key:
[1] = test system: N2O production from corn, alfalfa, and sorghum silages (denitrifiers); test: N2O production from laboratory mini silos (simulated silage) with different treatments, fourth part of the study; settings: for reduction of N2O production: inoculant + additive 0.1% (w/w), corn, alfalfa, sorghum silages, FIG. 4A, three replicates
Experimental: GHG production from simulated silage. Laboratory experiments were performed to estimate the GHG emission potentials from silage conservation (i.e. anaerobic conservation). In a first part of the study, N2O production from forage silos was studied. The forages used were corn, alfalfa, and sorghum. The mini silos consisted of 1 L glass jars connected to a 1-L Tedlar bag. The forage was chopped into 2-3 cm pieces with a laboratory chopper and ensiled in laboratory mini silos at a bulk density of 700 kg/m^3 (700 grams per silo). The experiments were performed in an incubator at 30° C. in the dark, and the produced gas volume and composition were measured periodically for 30 days.
(§1) The treatments compared in this research consisted of (1) no treatment, (2) commercial silage inoculant (Pioneer® inoculant), (3) inoculant+chlorate (0.1%, w/w), and (4) inoculant+acetate (0.1%, w/w). Three replicates for each treatment were performed.
In the fourth part of the study, three replicates for each treatment were added to forage silos prepared as described in paragraph [0052].

[2] = test system: N2O production from simulated silage (denitrifiers); test: N2O production from alfalfa mini silos (simulated silage) with different treatments, fifth part of the study; settings: for effect on N2O production: amendment 0.1% (w/w), P<0.001
Experimental: In a second part of the study, N2O and CH4 production from forage silos were studied. The forage used was second cut alfalfa (HVX MegaTron) harvested at the early flower stage. The mini silos consisted of 1 L glass jars connected to a 1-L Tedlar bag. The forage was chopped into 2-3 cm pieces with a laboratory chopper and ensiled in laboratory mini silos at a bulk density of 700 kg/m^3 (700 grams per silo). The experiments were performed in an incubator at 30° C. in the dark, and the produced gas volume and composition were measured periodically for 35 days.
as §1
In the fifth part of the study, three replicates for each treatment were added to forage silos prepared as described in paragraph [0054].

SMILES	reduction of N2O production [1]	reduction of total amount of N2O ([2]; acetate as a sodium salt, 1 g per kg-forage, preliminary study) [%]	effect on N2O production ([2]; preliminary study)	reduction of N2O production ([2]; inoculant + 0.1% (w/w) acetate, alfalfa silage, P<0.01, FIG. 4C) [%]	reduction of N2O ([1]; lower concentrations up to 0.01% (w/w), alfalfa silage, FIG. 4B)	reduction of N2O production (fold) ([2]; inoculant + 0.1% (w/w) chlorate, alfalfa silage, FIG. 4C)
CC(=O)O [acetate]	up to 25%	25	significantly repressed	25	–	–
[O-][Cl+2]([O-])O [chlorate]	up to 99%	–	significantly repressed	–	higher than 90%	more than ten times

From US20250049078A1, “ECO-FRIENDLY ADDITIVES FOR HAY AND SILAGE INOCULANTS MINIMIZING GREENHOUSE GAS EMISSIONS” (Kansas State University Research Foundation, priority 2021, published 2025)
